Measurements from patent US11760784B2, “Compositions comprising PEDF-derived short peptides and uses thereof” (BRIM Biotechnology, Inc., priority 2016, dated 2023).

Tests used:
MMP-9 mRNA = MMP-9 mRNA by quantitative real-time PCR in NaCl-treated corneal epithelial cells; assay type: cell-based, rabbit
Procedure: Therefore, we also examined the effects of PDSP on the MMP-9 mRNA expression and activity in NaCl-treated rabbit corneal epithelial cells. Briefly, rabbit corneal epithelial cells were treated as described above. […] Hyperosmotic stress induced a substantial (about 2-fold) increase in MMP-9 mRNA level (Negative control peptide, ConP, followed by NaCl treatment). […] The increases in MMP-9 mRNA levels substantially correlate with the expression of the MMP-9 protein as measured with SDS-gel and enzymatic activities, as shown in FIG. 7(B).
The total RNA was extracted from cells using TRIzol (Invitrogen) and treated with RNase free DNase I (Qiagen, Santa Clarita, CA) to remove genomic DNA and then purified with an RNA purification kit (Dynabeads; Invitrogen). Synthesis of cDNA was performed by Superscript III (Invitrogen). Quantitative real-time PCR was performed in a GeneAmp 7700 sequence detection system (Applied Biosystems, Foster City, CA). […] All determinations were measured in triplicate. The cycle threshold (Ct) values corresponded to the PCR cycle number at which fluorescence emission in real time reaches a threshold above the base-line emission were analyzed using GeneAmp 7700 SDS software. The Ct value of the PCR product of interest and a control mRNA (GAPDH) were then used to calculate relative quantities of mRNA between samples. […]

[1] = system: intracellular ROS in rabbit corneal epithelial cells; experiment: Intracellular ROS (H2DCFDA probe) in NaCl-treated corneal epithelial cells; assay type: cell-based
Procedure: We therefore examined the effects of PDSP on the intracellular ROS and GSH levels in NaCl-treated (HOP) rabbit corneal epithelial cells. Briefly, rabbit corneal epithelial cells were pretreated with 10 μM PDSP or a negative control peptide (ConP) for 20 hours, followed by treatment with NaCl to induce hyperosmotic stress. After NaCl treatment for another 24 hours, cells were assessed for ROS using a 2′,7′-dichlorodihydrofluorescein diacetate (H2DCFDA) probe, which is an ROS indicator dye. […]
Intracellular ROS generation was assayed using 2′,7′-dichlorodihydrofluorescein diacetate (H2DCFDA; Molecular Probes, Eugene, Oreg.) which, when oxidized by ROS, releases the green fluorescent compound 2′,7′-dichlorofluorescein (DCF). […] Fluorescence (excitation, 488 nm; emission, 520 nm) was measured with a Spectra MAX GEMINI Reader (Molecular Devices, Sunnyvale, Calif., USA). The background fluorescence from control wells without the addition of H2DCFDA was subtracted from the experimental readings.
To investigate the effect of hyperosmotic stress on the intracellular ROS formation, rabbit corneal epithelial cells were cultured in a hyperosmotic medium (463 mOsM) by adding 90 mM NaCl for 24 hours. The intracellular ROS levels were detected by H2DCFDA probe and measured the formation of DCF-fluorescence by spectrofluorometer.

MMP-9 activity = MMP-9 activity by gelatin zymography in NaCl-treated corneal epithelial cells; assay type: cell-based, rabbit; settings: PDSP pretreatment 20 hours, then hyperosmotic medium (463 mOsM) 24 hours
Procedure: Limbal stem cells were isolated from 6-month-old New Zealand white rabbits and continuously cultivated for 14 days by DMEM/F-12 basal medium based cell-suspension culture to achieve corneal-liked epithelial cell differentiation as previously described (Ho et al., 2013). To induce ROS or MMP-9 activity caused by hyperosmotic stress, cells were incubated overnight in hypertonic media (463 mOsm) achieved by addition of 90 mM NaCl. Cells cultured in DMEM/F-12 basal medium (309 mOsm) was used as negative control. To detect the preventive effect on hyperosmotic stress-induced ROS or MMP-9 activity, cells were pretreated with 10 μM PDSP for 20 hours before the treatment of NaCl.
To detect MMP-9 activity, 10 μL of culture medium was used to perform gelatin zymography as previous described method (Li et al., 2004). The band intensity was evaluated in zymography with a model GS-700 imaging densitometer (Bio-Rad Laboratories, Hercules, Calif.) and analyzed using Labworks 4.0 software.
To investigate the effect of PDSP on hyperosmotic stress-induced MMP-9 expression in corneal epithelial cells, cells were pretreated with the PDSP or control peptide (ConP) for 20 hours and then exposed the cells to hyperosmotic medium (463 mOsM) for another 24 hours. […] However, the PDSP pretreatment repressed the MMP-9 mRNA expression by a factor of 2-fold.

MCP-1 mRNA = experiment: Ocular MCP-1 mRNA by quantitative real-time PCR in CEC dry eye mice; assay type: in vivo, C57BL6 mice; settings: CEC 14 days, then topical PDSP for 5 days
Procedure: Dry eye is associated with abnormalities in the pre-corneal tear film and subsequent inflammatory changes in the entire ocular surface including the adnexa, conjunctiva and cornea. (see, Hessen et al., “Dry eye: An Inflammatory Ocular Disease,” J. Ophthalmic Vis. Res., 2014, 9(2): 240-250). Therefore, the effects of PDSPs in corneal inflammatory responses were next examined. Briefly, C57BL6 mice were housed in CEC for 14 days (Day 0) and then treatment with PDSP or vehicle were performed for additional 5 days (Day 5). Then, mRNA levels for inflammatory factors were evaluated by quantitative real-time PCR.
The total RNA was extracted from cells using TRIzol (Invitrogen) and treated with RNase free DNase I (Qiagen, Santa Clarita, CA) to remove genomic DNA and then purified with an RNA purification kit (Dynabeads; Invitrogen). […] Quantitative real-time PCR was performed in a GeneAmp 7700 sequence detection system (Applied Biosystems, Foster City, CA). […] All determinations were measured in triplicate. The cycle threshold (Ct) values corresponded to the PCR cycle number at which fluorescence emission in real time reaches a threshold above the base-line emission were analyzed using GeneAmp 7700 SDS software. The Ct value of the PCR product of interest and a control mRNA (GAPDH) were then used to calculate relative quantities of mRNA between samples.

In the case of “PDSP: 29mer, residues 93-121 of human PEDF: SLGAEQRTESIIHRALYYDLISSPDIHGT (SEQ ID NO:4) (listed as Homo sapiens)”, the “MMP-9 mRNA levels without hyperosmotic stress (peptide alone)” value (MMP-9 mRNA; PDSP alone, isotonic medium) is reported as “did not have effect”, the “repression of MMP-9 mRNA expression” value (MMP-9 mRNA; PDSP pretreatment 20 hours, then hyperosmotic medium (463 mOsM) 24 hours) is reported as 2 fold and the “DCF fluorescence without HOP (peptide alone)” value ([1]; 10 μM PDSP, isotonic medium, compared to untreated) is reported as “did not increase DCF fluorescence”. The “suppression of DCF-fluorescence level compared to cells treated with NaCl alone” value ([1]; 10 μM peptide pretreatment 20 hours, then hyperosmotic medium (463 mOsM, 90 mM NaCl) 24 hours) was 1.3 fold, the “repression of MMP-9 activity (gelatin zymography)” value (MMP-9 activity) was 3 fold and the “repression of ocular MCP-1 mRNA expression compared to vehicle-treated group” value (MCP-1 mRNA) was 1.7 fold.
